These results are taken from PMC4232510, “Identification of Functionally Important Residues of the Rat P2X4 Receptor by Alanine Scanning Mutagenesis of the Dorsal Fin and Left Flipper Domains” (PLoS ONE, 2014).

One experiment deals with T1, rP2X4R N287A mutant (Rattus norvegicus, UniProt P51577, N287A).
T1 construct: expressed in transfected cells; host or cells: HEK293T
T1 sequence (P51577 1-388 N287A): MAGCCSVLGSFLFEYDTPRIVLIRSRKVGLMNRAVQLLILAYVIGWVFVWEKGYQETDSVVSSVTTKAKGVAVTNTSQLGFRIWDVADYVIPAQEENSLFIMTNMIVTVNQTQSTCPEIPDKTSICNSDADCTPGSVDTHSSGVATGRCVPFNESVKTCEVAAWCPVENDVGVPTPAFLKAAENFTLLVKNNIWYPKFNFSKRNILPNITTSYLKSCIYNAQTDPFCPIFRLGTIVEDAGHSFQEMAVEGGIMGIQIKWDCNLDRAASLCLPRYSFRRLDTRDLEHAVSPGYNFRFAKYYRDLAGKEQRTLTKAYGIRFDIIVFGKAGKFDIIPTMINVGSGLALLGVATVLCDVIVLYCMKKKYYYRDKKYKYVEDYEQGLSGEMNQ
As to the kind of experiment: whole-cell patch clamp, HEK293T cells expressing mutant. Format: cell-based. (In general: Patch clamp records ionic current or voltage across a cell membrane.)

For a further experiment, the target named is T2, rP2X4R P207A mutant (Rattus norvegicus, UniProt P51577, P207A).
T2 construct: expressed in transfected cells; host or cells: HEK293T
T2 sequence (P51577 1-388 P207A): T1 sequence (P51577 1-388 N287A) with P207A, A287N
The experiment is described as above. Format: cell-based.

Setting [1] is: 100 µM ATP 60 s, biexponential fit.
Setting [2] is: contribution of τdes2, 100 µM ATP 60 s.
Where [3] appears, read: naïve receptors, 2–5 s application.
The mark [4] stands for this setting: 3 µM IVM 4-6 min vs IVM-untreated.

Each structure is given as a SMILES string. Substitutions are numbered along the chain they refer to.

Broadly, the EC50 is the concentration at which the effect is half-maximal. The low end stands for higher potency in that assay, the high end for lower potency in that assay. As for `Nc1ncnc2c1ncn2[C@@H]1O[C@H](COP(=O)(O)OP(=O)(O)OP(=O)(O)O)[C@@H](O)[C@H]1O` [ATP], the τdes1 was 1.6 ± 0.1 s at rP2X4R N287A mutant (setting [1]) and 0.7 ± 0.1 s at rP2X4R P207A mutant (setting [1]). Further, the τdes2 at rP2X4R N287A mutant (setting [1]) is given as 10.2 ± 3.0 s; on rP2X4R P207A mutant (setting [1]) it was 5.6 ± 0.2 s. This molecule had an Imax at rP2X4R N287A mutant (100–1000 µM ATP) of 1.6 ±0.2 nA. The “Imax+IVM” value at rP2X4R N287A mutant (ATP after 3 µM IVM 4-6 min) worked out at 4.0 ± 0.6 nA. Further, the “A2 /(A1+A2)” value at rP2X4R N287A mutant (setting [2]) stood at 75 ± 16%; at rP2X4R P207A mutant (setting [2]), 71 ± 2%. In addition, on rP2X4R N287A mutant (decay after removal of 1 or 3 µM ATP, 3 µM IVM), the “τoff +IVM” value is on record as 16 ± 2.5 s. The concentration for a half-maximal effect (EC50) amounted to 3200 ± 1000 nM at rP2X4R N287A mutant (setting [3]) and 2100 ± 1100 nM on rP2X4R P207A mutant (setting [3]). In addition, the τdes on rP2X4R N287A mutant (weighted, 100 µM ATP 60 s) was 7.1 ± 0.5 s; at rP2X4R P207A mutant (weighted, 100 µM ATP 60 s), 4.1 ± 0.2 s.

Regarding `CC[C@H](C)[C@H]1O[C@]2(CC[C@@H]1C)C[C@@H]1C[C@@H](C/C=C(\C)[C@@H](O[C@H]3C[C@H](OC)[C@@H](O[C@H]4C[C@H](OC)[C@@H](O)[C@H](C)O4)[C@H](C)O3)[C@@H](C)/C=C/C=C3\CO[C@@H]4[C@H](O)C(C)=C[C@@H](C(=O)O1)[C@]34O)O2` [IVM, ivermectin], the entries for the “Fold incr. Imax” value on rP2X4R N287A mutant (setting [4]) and at rP2X4R P207A mutant (setting [4]) were 3.3 ± 0.4 fold and 1.5 ± 0.3 fold, respectively.
